Legend:
[1] = system: PA14 ΔfpvA ΔfpvB pHERD20T-fpvB; experiment: MIC assay, ΔfpvA ΔfpvB complemented with fpvB; assay type: cell-based, Pseudomonas aeruginosa; settings: complementation with fpvB, arabinose induction, 10:90; susceptibility greater than with fpvA
Method: (§1) The ΔfpvA ΔfpvB mutant was complemented in trans with pHERD20T-fpvA or pHERD20T-fpvB. pHERD20T is an arabinose-inducible vector with expression driven by the PBAD promoter under the control of AraC ([30]).
(§2) MIC assays were conducted as previously described ([13], [14]). Overnight cultures were grown in LB from a glycerol stock at 37°C with shaking (200 rpm). Subcultures in 10:90 (1:100 dilution) were cultured for 4 h. Cells were adjusted to an optical density at 600 nm (OD600) of 0.1/500 in 10:90. All compounds were serially diluted 2-fold in dimethyl sulfoxide (DMSO) or H2O at 75× the final concentration. Plates were sealed to prevent evaporation and incubated at 37°C overnight in a shaking incubator (200 rpm). The next day, the OD600 was determined with a plate reader (Thermo Scientific) and normalized to percent of growth of the vehicle control after subtracting the OD600 from blank media.

[2] = system: PA14 ΔfpvA ΔfpvB pHERD20T-fpvA; experiment: MIC assay, ΔfpvA ΔfpvB complemented with fpvA; assay type: cell-based, Pseudomonas aeruginosa; settings: complementation with fpvA, arabinose induction, 10:90
Method: as §1, §2

[3] = system: PA14 ΔfpvA ΔfpvB ΔfiuA ΔfoxA pHERD20T-fpvB Y412A; experiment: Growth of quadruple mutant expressing FpvB Y412A; assay type: cell-based, Pseudomonas aeruginosa; settings: 10:90 + 2% arabinose
Method: (§3) Site-directed mutagenesis was used to confirm the docking predictions and to define the molecular determinants for ligand uptake through FpvB (Fig. 4C). We generated 17 single amino acid substitutions in FpvB and expressed each of them in trans in the quadruple ΔfpvA ΔfpvB ΔfiuA ΔfoxA mutant. Their ability to complement growth of the mutant in the presence of ferrichrome and ferrioxamine B and to restore TS susceptibility was assessed. […] The mutant transporters were tagged with a C-terminal FLAG tag to evaluate expression levels. FLAG-tagged FpvB mutants had WT levels of expression except for Y216T and W347V, which were expressed at 140% and 25% of WT, respectively.
(§4) The ΔfpvA ΔfpvB ΔfiuA ΔfoxA mutant was complemented with WT fpvA, fpvB, fiuA, and foxA in trans as controls (Fig. 4E).
as §2, with “Plates were sealed to prevent evaporation and incubated at 37°C overnight in a shaking incubator (200 rpm).” left out

[4] = system: PA14 ΔfpvA ΔfpvB ΔfiuA ΔfoxA pHERD20T-fpvB D219A; experiment: Growth of quadruple mutant expressing FpvB D219A; assay type: cell-based, Pseudomonas aeruginosa; settings: 10:90 + 2% arabinose
Method: as §3, §4
as §2, with “Plates were sealed to prevent evaporation and incubated at 37°C overnight in a shaking incubator (200 rpm).” left out

PA14 ΔfpvA ΔfpvB mutant = experiment: MIC assay, ΔfpvA ΔfpvB mutant; assay type: cell-based, Pseudomonas aeruginosa; settings: ΔfpvA ΔfpvB mutant, 10:90
Method: as §2

PA14 ΔfpvB mutant = experiment: MIC assay, ΔfpvB mutant; assay type: cell-based, Pseudomonas aeruginosa; settings: 10:90, growth reduced at 17 μg/mL
Method: as §2

PA14 = experiment: MIC assay, WT PA14; assay type: cell-based, Pseudomonas aeruginosa; settings: WT PA14, iron-limited medium (10:90)
Method: as §2

[5] = system: PA14 ΔfpvA ΔfpvB ΔfiuA ΔfoxA quadruple mutant; experiment: Growth phenotypes of deletion mutants, quadruple mutant; assay type: cell-based, Pseudomonas aeruginosa; settings: 17 μg/mL TS, 10:90
Excerpt: PA14, ΔfpvA, ΔfpvB, and ΔfpvA ΔfpvB strains treated with TS (A) and DSX (B) in 10:90. Green indicates growth, and white indicates no growth. Growth is expressed as percent of control. The PA14 ΔfpvA ΔfpvB strain complemented with pHERD20T, fpvA, or fpvB treated with TS (C) and DSX (D) in 10:90. […] All experiments are averaged from three independent biological replicates. Blue indicates growth and white indicates no growth. (H) Summary of growth phenotypes of WT PA14 and combinations of single, double, triple, and quadruple deletion mutants in fpvA, fpvB, fiuA, and foxA. […] Green indicates growth, whereas no growth is indicated in white. […] Representative plates are shown.
If there were no transporters for a particular siderophore, the mutant would fail to grow due to iron restriction.

[6] = system: PA14 ΔfpvA ΔfpvB pHERD20T-fpvB R648C; experiment: MIC assay, ΔfpvA ΔfpvB expressing FpvB R648C; assay type: cell-based, Pseudomonas aeruginosa; settings: 10:90 + 2% arabinose
Excerpt: (§5) FpvA T660C was used previously to measure pyoverdine-Fe^3+ binding affinity ([32]). However, this technique has not been applied to FpvB. A high-confidence structural model of FpvB was generated using AlphaFold2 ([33], [34]) and aligned with the structure of FpvA (PDB accession number 2O5P) to identify a residue suitable for labeling, with the assumption that FpvA and FpvB undergo similar conformational changes upon ferrisiderophore binding (see Fig. S3A through C in the supplemental material). Based on this analysis, FpvB R648 was mutated to Cys. FpvA T660C and FpvB R648C were each expressed in trans in the ΔfpvA ΔfpvB mutant. […] We could also detect expression by fluorescence microscopy with peripheral labeling consistent with expression in the outer membrane (Fig. 3B). Labeling was undetectable in empty vector and WT controls (see Fig. S4A in the supplemental material).
(§6) Supplementary file : FIG S3 Overlay of FpvA and FpvB showing residues mutated to cysteine for labeling with maleimide dyes. FpvA (PDB accession number 2O5P) was superimposed with the AlphaFold2 model of FpvB. FpvA is shown in beige and FpvB in blue. […]
(§7) MIC assays were conducted as previously described ([13], [14]). […] The next day, the OD600 was determined with a plate reader (Thermo Scientific) and normalized to percent of growth of the vehicle control after subtracting the OD600 from blank media.

[7] = system: PA14 ΔfpvA ΔfpvB ΔfiuA ΔfoxA pHERD20T; experiment: Growth of quadruple mutant with empty vector; assay type: cell-based, Pseudomonas aeruginosa; settings: 10:90 + 2% arabinose
Method: as §3, §4
as §2, with “Plates were sealed to prevent evaporation and incubated at 37°C overnight in a shaking incubator (200 rpm).” left out

[8] = Maximum soluble TS concentration; settings: in MIC assay medium
[9] = system: PA14 ΔfpvA ΔfpvB ΔfiuA ΔfoxA pHERD20T-fpvB Y216T; experiment: Growth of quadruple mutant expressing FpvB Y216T; assay type: cell-based, Pseudomonas aeruginosa; settings: 10:90 + 2% arabinose
Method: as §3, §4
as §2, with “Plates were sealed to prevent evaporation and incubated at 37°C overnight in a shaking incubator (200 rpm).” left out

[10] = highest concentration tested, 10μM fluorescein-5-maleimide in PBS
Method: Supplementary file : FIG S4 (A) Microscopy images of the PA14 ΔfpvA ΔfpvB strain with pHERD20T, pHERD20T-fpvA, and pHERD20T-fpvB treated with Alexa Fluor 594. Representative images are shown. Scale, 5μm. (B) TS partly quenches fluorescence of fluorescein-5-maleimide in the absence of cells. Each compound at the highest concentration tested was added to 10μM of fluorescein-5-maleimide in PBS in triplicate. TS reduced fluorescence to about 80% of the control. (Excitation, 485nm; emission, 528nm). ***, P < 0.001 (Student’s t test). […] Results are averaged from three independent biological replicates. Download FIG S4, EPS file, 39.8 MB.
TS was omitted from these studies because it quenched fluorescence (~20%) of the dye in the absence of cells (Fig. S4B). In the absence of protein, none of the three siderophores quenched fluorescence of the dye at the highest concentrations tested. Quenching curves were then generated and used to calculate the dissociation constant (Kd).

PA14 ΔfpvA mutant = experiment: MIC assay, ΔfpvA mutant; assay type: cell-based, Pseudomonas aeruginosa; settings: ΔfpvA mutant, iron-limited medium (10:90)
Method: as §2

[11] = system: PA14 ΔfpvA ΔfpvB pHERD20T-fpvA T660C; experiment: MIC assay, ΔfpvA ΔfpvB expressing FpvA T660C; assay type: cell-based, Pseudomonas aeruginosa; settings: 10:90 + 2% arabinose
Excerpt: as §5, §6, §7

With `C=C(NC(=O)C(=C)NC(=O)c1csc(C2=N[C@@H]3c4csc(n4)[C@H]4NC(=O)c5csc(n5)[C@H]([C@](C)(O)[C@@H](C)O)NC(=O)[C@H]5CSC(=N5)/C(=C/C)NC(=O)[C@H]([C@@H](C)O)NC(=O)c5csc(n5)[C@]3(CC2)NC(=O)[C@H](C)NC(=O)C(=C)NC(=O)[C@H](C)NC(=O)[C@H]([C@@H](C)CC)N[C@@H]2C=Cc3c([C@H](C)O)cc(nc3[C@H]2O)C(=O)O[C@@H]4C)n1)C(N)=O` [TS, thiostrepton] the TS susceptibility [1] was “restored TS susceptibility”, the TS susceptibility [2] was “restored TS susceptibility” and the TS susceptibility [3] was “reduced TS susceptibility”. The TS susceptibility [4] was “reduced TS susceptibility”, the “TS susceptibility (MIC assay)” value (PA14 ΔfpvA ΔfpvB mutant) was “resistant” and the “TS susceptibility (MIC assay)” value (PA14 ΔfpvB mutant) was “resistant”. For the same molecule, the “TS susceptibility (MIC assay)” value (PA14) was “susceptible”, the TS susceptibility [5] was “resistant” and the TS susceptibility [6] was “WT susceptibility”. The TS susceptibility [7] was “resistant”, the maximum soluble concentration [8] was 17 µg/mL and the TS susceptibility [9] was “reduced TS susceptibility”. The dye fluorescence remaining [10] was “about 80 % of the control”, the “quenching of dye fluorescence in the absence of cells” value [10] was ~ 20% and the “TS susceptibility (MIC assay)” value (PA14 ΔfpvA mutant) was “susceptible”. For the same molecule, the “increase of susceptibility to TS compared to WT FpvA” value [11] was 4 fold.
